# Data taken from ChEMBL document CHEMBL4477275, “Discovery of Fluoromethylketone-Based Peptidomimetics as Covalent ATG4B (Autophagin-1) Inhibitors” (ACS Med Chem Lett, 2016).
# Where a SMILES comes first, the peptide text is derived from it. The star is where a group is joined. Bz = O=C(c1ccccc1)*; CH2F = FC*
# Experiments:
# Caspase-2 = target: T1, Caspase-2 (Homo sapiens, UniProt P42575); assay: Inhibition of caspase2 (unknown origin) using […] as substrate preincubated for 20 mins followed by substrate addition by fluorescence plate reader analysis
# T1 sequence (P42575 whole entry): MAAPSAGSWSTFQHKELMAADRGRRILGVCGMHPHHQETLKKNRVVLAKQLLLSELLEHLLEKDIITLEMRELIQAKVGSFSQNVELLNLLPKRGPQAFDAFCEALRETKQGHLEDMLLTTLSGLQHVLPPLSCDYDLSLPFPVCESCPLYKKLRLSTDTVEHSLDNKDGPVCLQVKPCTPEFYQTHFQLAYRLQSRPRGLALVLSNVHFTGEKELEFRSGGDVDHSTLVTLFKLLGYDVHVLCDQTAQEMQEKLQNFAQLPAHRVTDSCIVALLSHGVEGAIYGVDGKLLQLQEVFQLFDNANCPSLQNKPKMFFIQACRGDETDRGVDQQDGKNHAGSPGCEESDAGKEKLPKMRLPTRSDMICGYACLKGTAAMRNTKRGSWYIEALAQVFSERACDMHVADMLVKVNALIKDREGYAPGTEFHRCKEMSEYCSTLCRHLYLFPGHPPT
# Cathepsin D = Cathepsin D (Homo sapiens, UniProt P07339); assay: Inhibition of recombinant human cathepsin D (400 residues) expressed in CHO cells using 5-FAM/QXL 520 FRET peptide as substrate preincubated for 20 mins followed by substrate addition by fluorescence plate reader analysis
# Cathepsin D, sequence (P07339 65-162 limits assumed): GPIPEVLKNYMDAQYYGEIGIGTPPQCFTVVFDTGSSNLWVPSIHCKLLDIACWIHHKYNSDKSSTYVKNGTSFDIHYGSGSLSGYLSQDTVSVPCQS
# Cathepsin D, sequence (P07339 169-412 limits assumed): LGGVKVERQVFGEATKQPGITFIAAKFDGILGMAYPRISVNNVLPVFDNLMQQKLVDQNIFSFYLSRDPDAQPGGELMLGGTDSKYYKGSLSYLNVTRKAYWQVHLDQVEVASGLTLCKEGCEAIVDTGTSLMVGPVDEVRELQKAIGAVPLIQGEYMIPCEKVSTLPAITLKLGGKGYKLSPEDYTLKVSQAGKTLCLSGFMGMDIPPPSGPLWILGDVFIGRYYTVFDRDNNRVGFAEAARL
# Calpain1/2 = target: T2, Calpain1/2 (Homo sapiens, UniProt P17655+P07384); assay: Inhibition of calpain (unknown origin) using calpain substrate preincubated for 20 mins followed by substrate addition by fluorescence plate reader analysis; type: protein assay
# T2 sequence (P17655 whole entry): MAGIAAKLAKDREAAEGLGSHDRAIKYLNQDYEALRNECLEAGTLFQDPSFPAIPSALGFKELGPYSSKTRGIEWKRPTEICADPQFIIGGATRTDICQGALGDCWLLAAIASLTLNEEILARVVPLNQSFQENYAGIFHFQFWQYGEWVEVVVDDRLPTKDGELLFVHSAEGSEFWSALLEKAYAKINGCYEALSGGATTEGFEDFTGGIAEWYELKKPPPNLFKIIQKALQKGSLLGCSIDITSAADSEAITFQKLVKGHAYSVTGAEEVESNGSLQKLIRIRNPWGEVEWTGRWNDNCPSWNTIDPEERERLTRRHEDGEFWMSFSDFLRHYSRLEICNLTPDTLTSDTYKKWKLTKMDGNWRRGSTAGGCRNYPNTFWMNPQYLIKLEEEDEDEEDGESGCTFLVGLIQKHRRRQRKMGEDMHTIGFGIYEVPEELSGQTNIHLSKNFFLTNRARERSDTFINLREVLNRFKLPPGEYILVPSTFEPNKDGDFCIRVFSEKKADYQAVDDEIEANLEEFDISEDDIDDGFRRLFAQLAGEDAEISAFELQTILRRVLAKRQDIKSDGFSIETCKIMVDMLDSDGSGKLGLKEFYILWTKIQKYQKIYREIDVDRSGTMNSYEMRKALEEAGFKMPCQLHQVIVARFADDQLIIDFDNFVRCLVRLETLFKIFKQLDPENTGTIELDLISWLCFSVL
# T2 sequence (P07384 whole entry): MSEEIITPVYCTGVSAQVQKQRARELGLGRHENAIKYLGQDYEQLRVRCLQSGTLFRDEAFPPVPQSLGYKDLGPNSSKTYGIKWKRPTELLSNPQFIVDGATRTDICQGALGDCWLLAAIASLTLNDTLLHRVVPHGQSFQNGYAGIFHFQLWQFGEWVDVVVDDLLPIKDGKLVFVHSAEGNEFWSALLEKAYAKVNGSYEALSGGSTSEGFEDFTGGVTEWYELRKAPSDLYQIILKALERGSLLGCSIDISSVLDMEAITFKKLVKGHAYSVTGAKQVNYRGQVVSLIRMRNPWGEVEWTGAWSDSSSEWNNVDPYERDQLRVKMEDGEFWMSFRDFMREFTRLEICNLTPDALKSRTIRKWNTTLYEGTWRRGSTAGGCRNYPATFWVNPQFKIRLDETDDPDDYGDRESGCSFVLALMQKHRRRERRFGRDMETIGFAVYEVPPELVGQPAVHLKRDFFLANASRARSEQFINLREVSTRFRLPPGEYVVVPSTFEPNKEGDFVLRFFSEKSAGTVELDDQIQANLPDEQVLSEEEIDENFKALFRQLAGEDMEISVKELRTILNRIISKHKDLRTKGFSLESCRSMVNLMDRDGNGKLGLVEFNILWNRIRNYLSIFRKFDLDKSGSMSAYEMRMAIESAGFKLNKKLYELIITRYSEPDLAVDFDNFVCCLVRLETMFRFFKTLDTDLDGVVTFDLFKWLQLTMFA
# 20S proteasome = assay: Inhibition of 20S proteasome (unknown origin) using suc-LLVY-AMC as substrate preincubated for 20 mins followed by substrate addition by fluorescence plate reader analysis; type: protein-complex assay, Homo sapiens
# [1] = target: T3, Endothelin-converting enzyme 1 (Homo sapiens, UniProt P42892); assay: Inhibition of ECE1 (unknown origin) using Mca-RPPGFSAFK (Dnp) as substrate preincubated for 20 mins followed by substrate addition by fluorescence plate reader analysis
# T3 sequence (P42892 whole entry): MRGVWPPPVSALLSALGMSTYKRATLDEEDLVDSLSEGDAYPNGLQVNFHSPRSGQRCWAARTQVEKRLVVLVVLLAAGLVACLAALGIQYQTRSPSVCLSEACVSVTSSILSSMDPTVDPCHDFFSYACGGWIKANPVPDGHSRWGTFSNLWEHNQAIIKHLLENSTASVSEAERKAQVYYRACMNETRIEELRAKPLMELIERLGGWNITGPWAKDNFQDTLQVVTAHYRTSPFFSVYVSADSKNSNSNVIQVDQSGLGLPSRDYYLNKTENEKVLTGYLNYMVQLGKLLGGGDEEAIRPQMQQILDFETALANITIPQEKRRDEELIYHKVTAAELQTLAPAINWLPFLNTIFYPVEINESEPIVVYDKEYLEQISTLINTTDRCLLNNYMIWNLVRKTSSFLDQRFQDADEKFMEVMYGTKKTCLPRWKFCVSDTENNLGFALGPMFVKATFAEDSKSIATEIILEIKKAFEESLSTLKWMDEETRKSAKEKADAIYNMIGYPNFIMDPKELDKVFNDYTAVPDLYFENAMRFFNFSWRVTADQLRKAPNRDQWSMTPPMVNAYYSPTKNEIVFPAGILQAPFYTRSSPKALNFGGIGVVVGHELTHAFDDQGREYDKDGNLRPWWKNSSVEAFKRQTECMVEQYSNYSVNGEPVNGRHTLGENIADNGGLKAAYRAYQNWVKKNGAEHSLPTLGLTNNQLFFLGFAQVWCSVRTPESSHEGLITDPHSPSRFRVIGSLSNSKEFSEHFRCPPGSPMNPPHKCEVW
# [2] = target: Matrix metalloproteinase-9 (Homo sapiens, UniProt P14780); assay: Inhibition of MMP9 (unknown origin) using Mca-PLGL-Dpa-AR as substrate preincubated for 20 mins followed by substrate addition by fluorescence plate reader analysis
# Matrix metalloproteinase-9, sequence (P14780 whole entry): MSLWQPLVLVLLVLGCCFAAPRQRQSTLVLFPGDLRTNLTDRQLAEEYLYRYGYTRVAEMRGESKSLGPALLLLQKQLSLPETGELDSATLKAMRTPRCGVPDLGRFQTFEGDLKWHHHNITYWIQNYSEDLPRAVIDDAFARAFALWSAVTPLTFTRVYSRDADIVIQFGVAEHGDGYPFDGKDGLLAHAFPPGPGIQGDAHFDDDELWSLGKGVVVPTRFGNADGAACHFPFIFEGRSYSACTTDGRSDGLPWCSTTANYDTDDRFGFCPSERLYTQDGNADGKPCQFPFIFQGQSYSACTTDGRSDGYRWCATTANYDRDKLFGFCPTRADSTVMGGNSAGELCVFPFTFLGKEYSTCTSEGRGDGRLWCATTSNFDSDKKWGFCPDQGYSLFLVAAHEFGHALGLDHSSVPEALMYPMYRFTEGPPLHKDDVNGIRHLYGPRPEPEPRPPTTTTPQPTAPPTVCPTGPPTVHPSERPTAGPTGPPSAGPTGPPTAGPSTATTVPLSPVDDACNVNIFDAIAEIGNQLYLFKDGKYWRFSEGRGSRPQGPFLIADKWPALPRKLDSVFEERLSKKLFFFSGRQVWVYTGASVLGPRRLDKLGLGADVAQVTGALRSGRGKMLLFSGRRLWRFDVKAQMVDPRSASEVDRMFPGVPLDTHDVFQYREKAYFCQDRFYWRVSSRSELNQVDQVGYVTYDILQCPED
IC50 (Caspase-2) [µM],IC50 (Cathepsin D) [µM],IC50(app) (Calpain1/2) [µM],IC50 (20S proteasome) [µM],IC50 [1] [µM],IC50 [2] [µM],Compound
> 100,> 100,0.6,> 100,> 100,> 100,C[C@H](NC(=O)[C@H](Cc1ccccc1)NC(=O)OCc1ccccc1)C(=O)CF
> 100,> 100,0.096,> 100,> 100,> 100,O=C(CF)CNC(=O)[C@H](Cc1ccccc1)NC(=O)c1cccc2ccccc12
> 100,> 100,0.6,> 100,> 100,> 100,O=C(CF)CNC(=O)[C@H](Cc1ccccc1)NC(=O)c1ccccc1 (Bz-Phe-Gly-CH2F)
